From PMC11367503, “Exploring galectin interactions with human milk oligosaccharides and blood group antigens identifies BGA6 as a functional galectin-4 ligand” (The Journal of Biological Chemistry, 2024)
“And” between values parts separate entries of the source, which are not always exact repeats. Equal entries are not always repeated.

How the values were obtained:
Type in all cases: binding
human Gal-3 [1] = target: T1, human Gal-3 (Homo sapiens, UniProt P17931); experiment: Competitive solid-phase assay (SPA), immobilized asialofetuin, Gal-3; conditions: mean ± S.D., three independent experiments
T1 construct: made in house; host or cells: Escherichia coli BL21 (DE3)
Description: (§1) The assay was adapted from Rapoport et al. (2010) ([88]). Briefly, 96-well plates (flat-bottom) were coated with 10 μg/ml asialofetuin (ASF, Sigma-Aldrich) in sodium carbonate buffer (pH 9.6) and incubated overnight at 4 °C. Then, wells were washed three times with 100 μl/well PBS-Tween 0.05% (w/v) and blocked with 100 μl/well PBS-bovine serum albumin (BSA) 2% (1 h, room temperature (RT)) in a humid chamber. Meanwhile, equal volumes of human recombinant Gal-1, -3, -4, -7, and -12 (20–40 μg/ml) in PBS-BSA 0.3% buffer were preincubated with the corresponding inhibitors in serial dilutions (2 h, 37 °C). After washing, galectins were detected using the corresponding antigalectin primary detection antibodies in PBS-BSA 0.3% w/v (1 h at RT). For Gal-1, wells were incubated with an in-house purified 100 ng/ml biotinylated rabbit anti–human Gal-1 polyclonal immunoglobulin G. For Gal-3, -4, and -7, a 1:500 dilution of the corresponding biotinylated anti-human galectin antibodies was used (BAF1154, BAF1227, and MAB13391, respectively, R&D Systems). For Gal-12, a rabbit anti-human Gal-12 polyclonal antibody (Santa Cruz Biotechnology, 1:700) was used. For Gal-1, -3, -4, and -7, plates were rinsed three times before adding 0.33 μg/ml horseradish peroxidase (HRP)-labeled streptavidin (Sigma-Aldrich) for 30 min. For Gal-12, an anti-rabbit secondary antibody conjugate coupled to HRP was incubated for 1 h at RT in PBS-BSA 0.3% w/v. After washing, 100 μl TMB solution (0.1 mg/ml tetramethylbenzidine and 0.06% H2O2 in citrate-phosphate buffer, pH 5.0) was added to plates. The reaction was stopped by adding a 2N H2SO4 solution. Absorbance was determined at 450 nm in a Multiskan MS microplate reader (Thermo Fisher Scientific).

human Gal-4 [2] = target: T2, human Gal-4 (Homo sapiens, UniProt P56470); experiment: Competitive solid-phase assay (SPA), immobilized asialofetuin, Gal-4; conditions: mean ± S.D., three independent experiments
T2 construct: His6-SUMO (N, cleaved yes); made in house; host or cells: Escherichia coli BL21 (DE3)
T2 sequence (P56470 1-323): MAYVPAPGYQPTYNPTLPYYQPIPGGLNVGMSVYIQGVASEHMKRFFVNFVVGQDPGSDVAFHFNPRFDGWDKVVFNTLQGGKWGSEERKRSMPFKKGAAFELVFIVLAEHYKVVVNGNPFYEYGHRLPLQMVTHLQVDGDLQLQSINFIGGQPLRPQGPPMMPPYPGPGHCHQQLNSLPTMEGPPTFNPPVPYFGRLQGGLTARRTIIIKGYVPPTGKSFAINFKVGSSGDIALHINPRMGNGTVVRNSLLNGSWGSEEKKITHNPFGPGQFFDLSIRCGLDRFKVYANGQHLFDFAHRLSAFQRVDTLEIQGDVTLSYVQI
Description: as §1

human Gal-7 [3] = target: T3, human Gal-7 (Homo sapiens, UniProt P47929); experiment: Competitive solid-phase assay (SPA), immobilized asialofetuin, Gal-7; conditions: for IC50: competitive SPA, immobilized asialofetuin, mean ± S.D., three independent experiments; for affinity of Gal-7 weaker than that shown by Gal-1: SPA, Gal-7 versus Gal-1
T3 construct: made in house; host or cells: Escherichia coli BL21 (DE3)
Description: as §1

human Gal-12 = target: T4, human Gal-12 (Homo sapiens, UniProt Q96DT0); experiment: Competitive solid-phase assay (SPA), immobilized asialofetuin, Gal-12; conditions: mean ± S.D., three independent experiments
T4 construct: To obtain full-length human Gal-12, we adapted our previously optimized procedure for murine Gal-12; made in house; host or cells: Escherichia coli Rosetta 2 (DE3)
T4 sequence (Q96DT0 1-336): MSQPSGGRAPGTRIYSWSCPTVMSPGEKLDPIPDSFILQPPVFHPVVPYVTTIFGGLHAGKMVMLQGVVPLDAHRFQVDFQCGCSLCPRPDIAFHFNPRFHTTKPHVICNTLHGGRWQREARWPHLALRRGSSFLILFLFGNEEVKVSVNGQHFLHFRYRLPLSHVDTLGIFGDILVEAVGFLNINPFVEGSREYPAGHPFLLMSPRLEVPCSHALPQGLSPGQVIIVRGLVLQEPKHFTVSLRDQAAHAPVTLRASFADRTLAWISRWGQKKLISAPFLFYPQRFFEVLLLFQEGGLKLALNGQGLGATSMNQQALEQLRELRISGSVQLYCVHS
Description: as §1

human Gal-1 [4] = target: T5, human Gal-1 (Homo sapiens, UniProt P09382); experiment: Competitive solid-phase assay (SPA), immobilized asialofetuin, Gal-1; conditions: mean ± S.D., three independent experiments
T5 construct: made in house; host or cells: Escherichia coli BL21 (DE3)
Description: as §1

human Gal-4 [5] = target: T2, human Gal-4; experiment: Isothermal titration calorimetry (ITC), Gal-4; conditions: Gal-4, PBS, 298 K, n fixed to 1.00
Description: (§2) All ITC experiments were performed by using a NanoITC (TA Instruments) under previously optimized conditions ([89]). A typical titration involved 20 injections at 300 s intervals of 2.5 μl aliquots of a 2.5 to 10 mM ligand solution into the sample cell (volume 200 μl) containing the different galectins (30–100 μM). The solutions were prepared by dissolving the glycan ligands in degassed PBS buffer at 298 K. The titration cell was continuously stirred at 300 rev/min. The heats of dilution of the ligands in the buffer were subtracted from the titration data. […] Fitting was performed using the Nano Analyze software (TA Instruments; https://www.tainstruments.com/itcrun-dscrun-nanoanalyze-software/) to determine association constants (Ka) and the enthalpy change (ΔH). No reliable fit of the thermodynamic parameters could be obtained for binding affinities above 80 μM.

human Gal-7 [6] = target: T3, human Gal-7; experiment: Isothermal titration calorimetry (ITC), Gal-7; conditions: Gal-7, PBS, 298 K, n fixed to 1.00
Description: as §2

human Gal-1 [7] = target: T5, human Gal-1; experiment: Isothermal titration calorimetry (ITC), Gal-1; conditions: Gal-1, PBS, 298 K; for Kd: n fixed to 1.00
Description: as §2

human Gal-3 [8] = target: T1, human Gal-3; experiment: Isothermal titration calorimetry (ITC), Gal-3; conditions: Gal-3, PBS, 298 K; for Kd: n fixed to 1.00
Description: as §2

T5 sequence (P09382 whole entry): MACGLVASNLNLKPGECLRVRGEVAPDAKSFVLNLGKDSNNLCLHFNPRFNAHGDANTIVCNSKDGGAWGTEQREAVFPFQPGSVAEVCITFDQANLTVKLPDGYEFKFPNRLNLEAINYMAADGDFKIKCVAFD
T3 sequence (P47929 whole entry): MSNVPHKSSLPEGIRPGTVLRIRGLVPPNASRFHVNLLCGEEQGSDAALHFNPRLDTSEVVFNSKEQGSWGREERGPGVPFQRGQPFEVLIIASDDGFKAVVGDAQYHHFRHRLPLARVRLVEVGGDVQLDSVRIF
T1 sequence (P17931 whole entry): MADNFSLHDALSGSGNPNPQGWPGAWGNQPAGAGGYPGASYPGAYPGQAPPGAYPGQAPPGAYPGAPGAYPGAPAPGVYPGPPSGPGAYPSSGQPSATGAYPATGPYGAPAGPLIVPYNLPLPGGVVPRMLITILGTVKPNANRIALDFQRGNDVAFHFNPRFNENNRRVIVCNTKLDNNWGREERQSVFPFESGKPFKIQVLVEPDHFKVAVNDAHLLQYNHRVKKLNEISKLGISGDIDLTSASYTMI

Structure (SMILES) | IC50 (human Gal-3 [1]) | IC50 (human Gal-4 [2]) [mM] | IC50 (human Gal-7 [3]) [mM] | IC50 (human Gal-12) [mM] | IC50 (human Gal-1 [4]) | Kd (human Gal-4 [5]) [mM] | Kd (human Gal-7 [6]) [mM] | affinity of Gal-7 weaker than that shown by Gal-1 (human Gal-7 [3]) | -TΔS (human Gal-1 [7]) [kcal/mol] | ΔH (human Gal-1 [7]) [kcal/mol] | Kd (human Gal-1 [7]) [mM] | -TΔS (human Gal-3 [8]) [kcal/mol] | ΔH (human Gal-3 [8]) [kcal/mol] | Kd (human Gal-3 [8]) [mM]
CC(=O)NC1C(OC2C(O)C(CO)OC(OC3C(CO)OC(O)C(O)C3OC3OC(C)C(O)C(O)C3O)C2O)OC(CO)C(OC2OC(C)C(O)C(O)C2O)C1OC1OC(CO)C(O)C(O)C1O (stereo not shown) [LAH, Lewis A antigen hexaose] | 9.3 ± 0.6 mM | 30.4 ± 2 | 22.2 ± 0.8 | 51.1 ± 5 |  |  |  |  |  |  |  |  |  | 
CC(=O)NC1C(O)CC(OC2C(O)C(CO)OC(OC3C(O)C(CO)OC(OC4C(O)C(CO)OC(OC5C(CO)OC(O)C(O)C5O)C4O)C3NC(C)=O)C2O)(C(=O)O)OC1C(O)C(O)CO (stereo not shown) [LSTa, sialyl-lacto-N-tetraose a] | 7.8 ± 0.8 mM |  | 4.3 ± 0.9 | 9.2 ± 1 | 1.8 ± 0.1 mM |  |  |  |  |  |  |  |  | 
CC1OC(OC2C(OC3C(CO)OC(O)C(O)C3OC3OC(C)C(O)C(O)C3O)OC(CO)C(O)C2O)C(O)C(O)C1O (stereo not shown) [DFL, 2′,3-difucosyllactose] | 9.1 ± 0.9 mM | 14.5 ± 0.7 | 18.4 ± 0.3 | 4.5 ± 0.6 | 11.9 mM |  |  |  |  |  |  |  |  | 
CC(=O)NC1C(OC2C(O)C(CO)OC(OC3C(CO)OC(O)C(O)C3OC3OC(C)C(O)C(O)C3O)C2O)OC(CO)C(O)C1OC1OC(CO)C(O)C(O)C1O (stereo not shown) [LNFP V, lacto-N-fucopentaose V] | 2.7 ± 0.5 mM | 25.1 ± 0.5 | 7.2 ± 0.3 | 8.9 ± 1 | 2.6 mM and 2.61 mM |  |  |  |  |  |  |  |  | 
CC1OC(OC2C(OC3C(CO)OC(O)C(O)C3O)OC(CO)C(O)C2O)C(O)C(O)C1O (stereo not shown) [2’-FL, 2′-fucosyllactose] | 4.2 ± 0.3 mM | 1.5 ± 0.6 | 8.3 ± 0.5 | 63.5 ± 0.8 | 1.2 mM and 1.23 mM | 0.13 ± 0.009 |  |  |  |  |  |  |  | 
CC(=O)NC1C(OC2C(O)C(CO)OC(OC3C(CO)OC(O)C(O)C3O)C2O)OC(CO)C(O)C1OC1OC(CO)C(O)C(O)C1O (stereo not shown) [LNT, lacto-N-tetraose] | ~1.8 mM and 1.8 mM | 15.1 ± 0.2 | 2 | 30.1 ± 5 | 1.6 ± 0.1 mM |  | 0.106 ± 0.008 |  |  |  |  |  |  | 
CC(=O)NC1C(OC2C(O)C(CO)OC(OC3C(CO)OC(O)C(O)C3OC3OC(C)C(O)C(O)C3O)C2O)OC(CO)C(OC2OC(CO)C(O)C(O)C2O)C1OC1OC(C)C(O)C(O)C1O (stereo not shown) [DFH, 3,3-difucosylhexaose (Lewis X hexaose)] | 10.5 ± 0.7 mM | 13.8 ± 3 | 9.2 ± 0.2 | 5.6 ± 0.8 | 9.7 mM and 9.73 mM |  |  |  |  |  |  |  |  | 
CC(=O)NC1C(OC2C(O)C(CO)OC(OC3C(CO)OC(OC4C(O)C(CO)OC(OC5C(CO)OC(OC6C(O)C(CO)OC(OC7C(CO)OC(O)C(O)C7O)C6O)C(NC(C)=O)C5O)C4O)C(NC(C)=O)C3O)C2O)OC(CO)C(OC2OC(CO)C(O)C(O)C2O)C1O (stereo not shown) [LNnO, lacto-N-neooctaose] | 0.5 ± 0.9 mM | 21.5 | 2.1 ± 0.8 | 28.1 ± 5 | 0.6 ± 0.1 mM |  |  | ca. 5 fold | -2.61 ± 0 | -3.04 ± 0.48 | 0.073 ± 0.007 | -5.02 ± 0.48 | -1.1 ± 0.096 | 0.04 ± 0.003
CC(=O)NC1C(O)OC(CO)C(OC2OC(CO)C(O)C(OC3(C(=O)O)CC(O)C(NC(C)=O)C(C(O)C(O)CO)O3)C2O)C1O (stereo not shown) [3’-SLacNAc, 3’-sialyl-N-acetyllactosamine] | 4.8 ± 0.3 mM |  | 2.2 | 9.8 ± 1 | 2.2 ± 0.04 mM |  |  |  |  |  |  |  |  | 
CC(=O)NC1C(O)CC(OCC2OC(OC3C(CO)OC(O)C(O)C3O)C(O)C(O)C2O)(C(=O)O)OC1C(O)C(O)CO (stereo not shown) [6’-SL, 6′-sialyllactose] |  |  | 9.5 ± 0.3 | 53.3 ± 2 |  |  |  |  |  |  |  |  |  | 
CC(=O)NC1C(OC2C(O)C(CO)OC(OC3C(O)C(CO)OC(O)C3NC(C)=O)C2OC2OC(C)C(O)C(O)C2O)OC(CO)C(O)C1O (stereo not shown) [BGA1, blood group A antigen 1] | 1.2 ± 0.5 mM | 0.2 ± 0.1 | 2.5 ± 0.8 | 30.3 ± 9 | 6.2 mM and 6.19 mM |  |  |  |  |  |  |  |  | 
OC[C@H]1O[C@@H](O[C@H]2[C@H](O)[C@@H](O)C(O)O[C@@H]2CO)[C@H](O)[C@@H](O)[C@H]1O (mixture of isomers) [Lac, lactose] |  | 23.1 | 3 ± 0.6 | 82.1 ± 0.8 |  |  |  |  |  |  |  |  |  | 
CC(=O)NC1C(OC2C(O)C(CO)OC(OC3C(CO)OC(O)C(O)C3O)C2O)OC(CO)C(OC2OC(CO)C(O)C(O)C2O)C1O (stereo not shown) [LNnT, lacto-N-neotetraose] | ~1.8 mM and 1.8 mM | 25.2 | 3.3 | 29.3 ± 6 | 0.5 ± 0.1 mM |  |  | ca. 5 fold | -3.51 ± 0.19 | -2.15 ± 0.22 | 0.072 ± 0.008 |  |  | 0.095 ± 0.009
CC(=O)NC1C(O)CC(OC2C(O)C(CO)OC(OC3C(CO)OC(O)C(O)C3O)C2O)(C(=O)O)OC1C(O)C(O)CO (stereo not shown) [3’-SL, 3′-sialyllactose] | 11 ± 0.9 mM |  | 1.7 ± 0.2 | 11.1 ± 1 | 2.2 ± 0.03 mM |  | 0.097 ± 0.009 |  |  |  |  |  |  | 
